Laboratory results reported in the NIST ThermoML archive (doi:10.1021/je030191w).
Numbers after ± are expanded uncertainties.

Test: xn = mol fraction of the nth substance listed
Conditions: 101 kPa, Liquid

Structure (SMILES): CCn1cc[n+](C)c1.F[B-](F)(F)F [1-ethyl-3-methylimidazolium tetrafluoroborate] + O
- mass density (293.15 K, x2 = 0): 1340.7 ± 50 kg/m3
- viscosity (293.15 K, x2 = 0): 45.29 ± 2.9 mPa·s
- mass density (293.15 K, x2 = 0.0995): 1336.1 ± 50 kg/m3
- viscosity (293.15 K, x2 = 0.0995): 34.43 ± 2.3 mPa·s
- mass density (293.15 K, x2 = 0.2062): 1330 ± 50 kg/m3
- viscosity (293.15 K, x2 = 0.2062): 25.1 ± 1.7 mPa·s
- mass density (293.15 K, x2 = 0.3047): 1322.9 ± 50 kg/m3
- viscosity (293.15 K, x2 = 0.3047): 19.25 ± 1.3 mPa·s
- mass density (293.15 K, x2 = 0.4034): 1313.4 ± 50 kg/m3
- viscosity (293.15 K, x2 = 0.4034): 13.76 ± 0.98 mPa·s
- mass density (293.15 K, x2 = 0.5034): 1299.8 ± 50 kg/m3
- viscosity (293.15 K, x2 = 0.5034): 10.36 ± 0.77 mPa·s
- mass density (293.15 K, x2 = 0.5998): 1284.2 ± 50 kg/m3
- viscosity (293.15 K, x2 = 0.5998): 7.892 ± 0.61 mPa·s
- mass density (293.15 K, x2 = 0.7005): 1262 ± 50 kg/m3
- viscosity (293.15 K, x2 = 0.7005): 5.797 ± 0.48 mPa·s
- mass density (293.15 K, x2 = 0.8011): 1225.9 ± 50 kg/m3
- viscosity (293.15 K, x2 = 0.8011): 4.127 ± 0.36 mPa·s
- mass density (293.15 K, x2 = 0.9027): 1157.4 ± 50 kg/m3
- viscosity (293.15 K, x2 = 0.9027): 3.035 ± 0.27 mPa·s
- mass density (298.15 K, x2 = 0): 1336.7 ± 50 kg/m3
- viscosity (298.15 K, x2 = 0): 37.19 ± 2.4 mPa·s
- mass density (298.15 K, x2 = 0.0995): 1332.1 ± 50 kg/m3
- viscosity (298.15 K, x2 = 0.0995): 29.02 ± 1.9 mPa·s
- mass density (298.15 K, x2 = 0.2062): 1326 ± 50 kg/m3
- viscosity (298.15 K, x2 = 0.2062): 21.01 ± 1.4 mPa·s
- mass density (298.15 K, x2 = 0.3047): 1318.9 ± 50 kg/m3
- viscosity (298.15 K, x2 = 0.3047): 15.96 ± 1.1 mPa·s
- mass density (298.15 K, x2 = 0.4034): 1309.5 ± 50 kg/m3
- viscosity (298.15 K, x2 = 0.4034): 11.45 ± 0.84 mPa·s
- mass density (298.15 K, x2 = 0.5034): 1296 ± 50 kg/m3
- viscosity (298.15 K, x2 = 0.5034): 8.597 ± 0.66 mPa·s
- mass density (298.15 K, x2 = 0.5998): 1280.6 ± 50 kg/m3
- viscosity (298.15 K, x2 = 0.5998): 6.975 ± 0.56 mPa·s
- mass density (298.15 K, x2 = 0.7005): 1258.4 ± 50 kg/m3
- viscosity (298.15 K, x2 = 0.7005): 4.822 ± 0.42 mPa·s
- mass density (298.15 K, x2 = 0.8011): 1222.3 ± 50 kg/m3
- viscosity (298.15 K, x2 = 0.8011): 3.499 ± 0.31 mPa·s
- mass density (298.15 K, x2 = 0.9027): 1154.2 ± 50 kg/m3
- viscosity (298.15 K, x2 = 0.9027): 2.584 ± 0.23 mPa·s
- mass density (303.15 K, x2 = 0): 1332.9 ± 50 kg/m3
- viscosity (303.15 K, x2 = 0): 31.36 ± 2.1 mPa·s
- mass density (303.15 K, x2 = 0.0995): 1328.3 ± 50 kg/m3
- viscosity (303.15 K, x2 = 0.0995): 24.8 ± 1.7 mPa·s
- mass density (303.15 K, x2 = 0.2062): 1322.2 ± 50 kg/m3
- viscosity (303.15 K, x2 = 0.2062): 17.9 ± 1.2 mPa·s
- mass density (303.15 K, x2 = 0.3047): 1315.2 ± 50 kg/m3
- viscosity (303.15 K, x2 = 0.3047): 13.58 ± 0.97 mPa·s
- mass density (303.15 K, x2 = 0.4034): 1305.8 ± 50 kg/m3
- viscosity (303.15 K, x2 = 0.4034): 9.674 ± 0.72 mPa·s
- mass density (303.15 K, x2 = 0.5034): 1292.3 ± 50 kg/m3
- viscosity (303.15 K, x2 = 0.5034): 7.384 ± 0.58 mPa·s
- mass density (303.15 K, x2 = 0.5998): 1276.9 ± 50 kg/m3
- viscosity (303.15 K, x2 = 0.5998): 5.492 ± 0.47 mPa·s
- mass density (303.15 K, x2 = 0.7005): 1254.8 ± 50 kg/m3
- viscosity (303.15 K, x2 = 0.7005): 3.896 ± 0.34 mPa·s
- mass density (303.15 K, x2 = 0.8011): 1218.7 ± 50 kg/m3
- viscosity (303.15 K, x2 = 0.8011): 2.962 ± 0.27 mPa·s
- mass density (303.15 K, x2 = 0.9027): 1151.1 ± 50 kg/m3
- viscosity (303.15 K, x2 = 0.9027): 2.189 ± 0.2 mPa·s
- mass density (308.15 K, x2 = 0): 1329.6 ± 50 kg/m3
- viscosity (308.15 K, x2 = 0): 25.56 ± 1.7 mPa·s
- mass density (308.15 K, x2 = 0.0995): 1324.9 ± 50 kg/m3
- viscosity (308.15 K, x2 = 0.0995): 20.53 ± 1.4 mPa·s
- mass density (308.15 K, x2 = 0.2062): 1318.9 ± 50 kg/m3
- viscosity (308.15 K, x2 = 0.2062): 14.58 ± 1 mPa·s
- mass density (308.15 K, x2 = 0.3047): 1311.9 ± 50 kg/m3
- viscosity (308.15 K, x2 = 0.3047): 10.93 ± 0.8 mPa·s
- mass density (308.15 K, x2 = 0.4034): 1302.5 ± 50 kg/m3
- viscosity (308.15 K, x2 = 0.4034): 8.187 ± 0.63 mPa·s
- mass density (308.15 K, x2 = 0.5034): 1288.9 ± 50 kg/m3
- viscosity (308.15 K, x2 = 0.5034): 6.409 ± 0.52 mPa·s
- mass density (308.15 K, x2 = 0.5998): 1273.5 ± 50 kg/m3
- viscosity (308.15 K, x2 = 0.5998): 4.707 ± 0.41 mPa·s
- mass density (308.15 K, x2 = 0.7005): 1251.4 ± 50 kg/m3
- viscosity (308.15 K, x2 = 0.7005): 3.531 ± 0.31 mPa·s
- mass density (308.15 K, x2 = 0.8011): 1215.4 ± 50 kg/m3
- viscosity (308.15 K, x2 = 0.8011): 2.555 ± 0.23 mPa·s
- mass density (308.15 K, x2 = 0.9027): 1148 ± 50 kg/m3
- viscosity (308.15 K, x2 = 0.9027): 1.898 ± 0.17 mPa·s
- mass density (313.15 K, x2 = 0): 1325.9 ± 50 kg/m3
- viscosity (313.15 K, x2 = 0): 21.54 ± 1.5 mPa·s
- mass density (313.15 K, x2 = 0.0995): 1321.2 ± 50 kg/m3
- viscosity (313.15 K, x2 = 0.0995): 17.96 ± 1.2 mPa·s
- mass density (313.15 K, x2 = 0.2062): 1315.2 ± 50 kg/m3
- viscosity (313.15 K, x2 = 0.2062): 12.68 ± 0.91 mPa·s
- mass density (313.15 K, x2 = 0.3047): 1308.1 ± 50 kg/m3
- viscosity (313.15 K, x2 = 0.3047): 9.634 ± 0.72 mPa·s
- mass density (313.15 K, x2 = 0.4034): 1298.7 ± 50 kg/m3
- viscosity (313.15 K, x2 = 0.4034): 7.165 ± 0.57 mPa·s
- mass density (313.15 K, x2 = 0.5034): 1285.3 ± 50 kg/m3
- viscosity (313.15 K, x2 = 0.5034): 5.465 ± 0.46 mPa·s
- mass density (313.15 K, x2 = 0.5998): 1269.7 ± 50 kg/m3
- viscosity (313.15 K, x2 = 0.5998): 4.159 ± 0.36 mPa·s
- mass density (313.15 K, x2 = 0.7005): 1247.5 ± 50 kg/m3
- viscosity (313.15 K, x2 = 0.7005): 3.133 ± 0.28 mPa·s
- mass density (313.15 K, x2 = 0.8011): 1211.8 ± 50 kg/m3
- viscosity (313.15 K, x2 = 0.8011): 2.267 ± 0.21 mPa·s
- mass density (313.15 K, x2 = 0.9027): 1145 ± 50 kg/m3
- viscosity (313.15 K, x2 = 0.9027): 1.689 ± 0.16 mPa·s
- mass density (318.15 K, x2 = 0): 1322.2 ± 50 kg/m3
- viscosity (318.15 K, x2 = 0): 18.84 ± 1.3 mPa·s
- mass density (318.15 K, x2 = 0.0995): 1317.6 ± 50 kg/m3
- viscosity (318.15 K, x2 = 0.0995): 15.93 ± 1.1 mPa·s
- mass density (318.15 K, x2 = 0.2062): 1311.6 ± 50 kg/m3
- viscosity (318.15 K, x2 = 0.2062): 11.16 ± 0.82 mPa·s
- mass density (318.15 K, x2 = 0.3047): 1304.5 ± 50 kg/m3
- viscosity (318.15 K, x2 = 0.3047): 8.324 ± 0.64 mPa·s
- mass density (318.15 K, x2 = 0.4034): 1295 ± 50 kg/m3
- viscosity (318.15 K, x2 = 0.4034): 6.357 ± 0.52 mPa·s
- mass density (318.15 K, x2 = 0.5034): 1281.6 ± 50 kg/m3
- viscosity (318.15 K, x2 = 0.5034): 4.979 ± 0.43 mPa·s
- mass density (318.15 K, x2 = 0.5998): 1266 ± 50 kg/m3
- viscosity (318.15 K, x2 = 0.5998): 3.63 ± 0.32 mPa·s
- mass density (318.15 K, x2 = 0.7005): 1243.9 ± 50 kg/m3
- viscosity (318.15 K, x2 = 0.7005): 2.584 ± 0.23 mPa·s
- mass density (318.15 K, x2 = 0.8011): 1208.2 ± 50 kg/m3
- viscosity (318.15 K, x2 = 0.8011): 2.044 ± 0.19 mPa·s
- mass density (318.15 K, x2 = 0.9027): 1141.8 ± 50 kg/m3
- viscosity (318.15 K, x2 = 0.9027): 1.53 ± 0.14 mPa·s
- mass density (323.15 K, x2 = 0): 1319.5 ± 50 kg/m3
- viscosity (323.15 K, x2 = 0): 15.9 ± 1.1 mPa·s
- mass density (323.15 K, x2 = 0.0995): 1314.8 ± 50 kg/m3
- viscosity (323.15 K, x2 = 0.0995): 13.74 ± 0.98 mPa·s
- mass density (323.15 K, x2 = 0.2062): 1308.8 ± 50 kg/m3
- viscosity (323.15 K, x2 = 0.2062): 9.797 ± 0.73 mPa·s
- mass density (323.15 K, x2 = 0.3047): 1301.6 ± 50 kg/m3
- viscosity (323.15 K, x2 = 0.3047): 7.47 ± 0.59 mPa·s
- mass density (323.15 K, x2 = 0.4034): 1292 ± 50 kg/m3
- viscosity (323.15 K, x2 = 0.4034): 5.692 ± 0.48 mPa·s
- mass density (323.15 K, x2 = 0.5034): 1278.6 ± 50 kg/m3
- viscosity (323.15 K, x2 = 0.5034): 4.522 ± 0.4 mPa·s
- mass density (323.15 K, x2 = 0.5998): 1263.1 ± 50 kg/m3
- viscosity (323.15 K, x2 = 0.5998): 3.215 ± 0.29 mPa·s
- mass density (323.15 K, x2 = 0.7005): 1240.7 ± 50 kg/m3
- viscosity (323.15 K, x2 = 0.7005): 2.512 ± 0.23 mPa·s
- mass density (323.15 K, x2 = 0.8011): 1205 ± 50 kg/m3
- viscosity (323.15 K, x2 = 0.8011): 1.904 ± 0.18 mPa·s
- mass density (323.15 K, x2 = 0.9027): 1138.5 ± 50 kg/m3
- viscosity (323.15 K, x2 = 0.9027): 1.439 ± 0.14 mPa·s
